Literature values as cited in patent US20050148519A1, “Salts of pharmacologically active compounds” (priority 2003, published 2005).

How the values were obtained:
[1] = for Injection site reaction: intramuscular or subcutaneous for flunixin, route not given for the others
[2] = dog, oral 2.2, 6.6 and 11.0 mg/kg

Time flunixin is present in tissues at a pharmaceutically effective amount (injection in a conventional format) [h] | Flunixin serum concentration immediately following administration (single dose 1.1 mg/kg) [µg/mL] | Flunixin serum concentration within 4 hours of administration (single dose 1.1 mg/kg) | Time post administration to undetectable flunixin serum levels (single dose 1.1 mg/kg) [h] | Time for injection site reactions to dissipate ([1]; in vivo) | Compound | Injection site reaction [1] | Side effects following oral dosing [2]
– | – | – | – | – | CN(C)[C@@H]1C(O)=C(C(N)=O)C(=O)[C@@]2(O)C(O)=C3C(=O)c4c(O)cccc4[C@@](C)(O)[C@H]3[C@H](O)[C@@H]12 [Oxytetracyclines, oxytetracycline] | severe injection site inflammations and even necrosis | –
6 to 12 | 8 to 13 | sub micro gram/mL | 6 to 12 | – | Cc1c(Nc2ncccc2C(=O)O)cccc1C(F)(F)F [flunixin] | can cause tissue damage | vomiting, diarrhea, blood in stools, and gastro-intestinal ulceration were common
– | – | – | – | two to three days | CC[C@H]1OC(=O)C[C@@H](O)[C@H](C)[C@@H](O[C@@H]2O[C@H](C)[C@@H](O)[C@H](N(C)C)[C@H]2O)[C@@H](CCN2C[C@H](C)C[C@H](C)C2)C[C@@H](C)C(=O)/C=C/C(C)=C/[C@@H]1CO[C@@H]1O[C@H](C)[C@@H](O)[C@@H](OC)[C@H]1OC [tilmicosin] | mild injection site reactions | –
